Assay results published in the NIST ThermoML archive (doi:10.1016/j.jct.2013.05.029).

Test: refractive index (other wavelength) (dimensionless); xn = mol fraction of the nth substance listed
Details: 101 kPa, Liquid, Wavelength=633 nm, Standard Abbe refractometry

CCCCCCCCCC [decane] + COC(=O)OC
Details | refractive index
280.97 K, x2 = 0.517 | 1.4023
280.97 K, x2 = 0.915 | 1.3807
281.95 K, x2 = 0.537 | 1.4011
281.95 K, x2 = 0.913 | 1.3805
283 K, x2 = 0.549 | 1.4002
283 K, x2 = 0.903 | 1.3808
284.42 K, x2 = 0.581 | 1.3983
284.42 K, x2 = 0.89 | 1.3811
285.51 K, x2 = 0.615 | 1.3964
285.51 K, x2 = 0.876 | 1.3817
286.06 K, x2 = 0.63 | 1.3954
286.06 K, x2 = 0.867 | 1.382
286.31 K, x2 = 0.641 | 1.3948
286.31 K, x2 = 0.859 | 1.3825
286.44 K, x2 = 0.65 | 1.3943
286.44 K, x2 = 0.855 | 1.3827
286.64 K, x2 = 0.663 | 1.3936
286.64 K, x2 = 0.849 | 1.383
286.84 K, x2 = 0.671 | 1.3932
286.84 K, x2 = 0.842 | 1.3834
286.94 K, x2 = 0.677 | 1.3928
286.94 K, x2 = 0.837 | 1.3837
287.03 K, x2 = 0.689 | 1.3922
287.03 K, x2 = 0.831 | 1.3841
287.13 K, x2 = 0.692 | 1.392
287.13 K, x2 = 0.827 | 1.3843
287.21 K, x2 = 0.703 | 1.3914
287.21 K, x2 = 0.708 | 1.3911
287.21 K, x2 = 0.819 | 1.3847
287.21 K, x2 = 0.824 | 1.3844
287.23 K, x2 = 0.705 | 1.3913
287.23 K, x2 = 0.712 | 1.3909
287.23 K, x2 = 0.815 | 1.385
287.23 K, x2 = 0.82 | 1.3847
287.26 K, x2 = 0.716 | 1.3907
287.26 K, x2 = 0.817 | 1.3849
287.27 K, x2 = 0.712 | 1.3909
287.27 K, x2 = 0.813 | 1.3851
287.28 K, x2 = 0.716 | 1.3907
287.28 K, x2 = 0.817 | 1.3849
287.29 K, x2 = 0.716 | 1.3907
287.29 K, x2 = 0.809 | 1.3853
287.31 K, x2 = 0.72 | 1.3905
287.31 K, x2 = 0.814 | 1.385
287.32 K, x2 = 0.72 | 1.3905
287.32 K, x2 = 0.723 | 1.3903
287.32 K, x2 = 0.729 | 1.39
287.32 K, x2 = 0.804 | 1.3857
287.32 K, x2 = 0.806 | 1.3855
287.32 K, x2 = 0.809 | 1.3853
287.35 K, x2 = 0.725 | 1.3902
287.35 K, x2 = 0.731 | 1.3899
287.35 K, x2 = 0.735 | 1.3896
287.35 K, x2 = 0.741 | 1.3893
287.35 K, x2 = 0.796 | 1.3861
287.35 K, x2 = 0.799 | 1.3859
287.35 K, x2 = 0.803 | 1.3857
287.35 K, x2 = 0.809 | 1.3853
287.36 K, x2 = 0.737 | 1.3895
287.36 K, x2 = 0.798 | 1.386
287.37 K, x2 = 0.737 | 1.3895
287.37 K, x2 = 0.741 | 1.3893
287.37 K, x2 = 0.79 | 1.3865
287.37 K, x2 = 0.796 | 1.3861
